Laboratory results from PMC8288134, “Synthesis, potential antitumor activity, cell cycle analysis, and multitarget mechanisms of novel hydrazones incorporating a 4-methylsulfonylbenzene scaffold: a molecular docking study” (Journal of Enzyme Inhibition and Medicinal Chemistry, 2021).
Like-named read-outs stand apart in the source and are kept apart here.

Tests used:
HL-60(TB) = assay: cells; assay type: cell-based, human; details: Homo sapiens, HL-60, HL-60(TB); one dose 10 µM; read-out: Growth inhibition percentage (GI%)
K-562 = assay: NCI antitumor screen (SRB); assay type: cell-based; details: Homo sapiens, K562, read-out: Growth inhibition percentage (GI%)
MOLT-4 = assay: NCI antitumor screen (SRB); assay type: cell-based; details: Homo sapiens, one dose 10 µM, read-out: Growth inhibition percentage (GI%)
A549/ATCC = assay: NCI antitumor screen (SRB); assay type: cell-based; details: Homo sapiens, one dose 10 µM, read-out: Growth inhibition percentage (GI%)
HOP-62 = assay: NCI antitumor screen (SRB); assay type: cell-based; details: Homo sapiens, HOP-62, read-out: Growth inhibition percentage (GI%)
SNB-75 = assay: NCI antitumor screen (SRB); assay type: cell-based; details: Homo sapiens, one dose 10 µM, read-out: Growth inhibition percentage (GI%)
UACC-257 = assay: NCI antitumor screen (SRB); assay type: cell-based, human; details: Homo sapiens, one dose 10 µM, read-out: Growth inhibition percentage (GI%)
SK-OV-3 = assay: NCI antitumor screen (SRB); assay type: cell-based; details: Homo sapiens, one dose 10 µM, read-out: Growth inhibition percentage (GI%)
UO-31 = assay: NCI antitumor screen (SRB); assay type: cell-based, human; details: Homo sapiens, one dose 10 µM, read-out: Growth inhibition percentage (GI%)
T-47D = assay: NCI antitumor screen (SRB); assay type: cell-based; details: Homo sapiens, T47D, one dose 10 µM, read-out: Growth inhibition percentage (GI%)
[1] = test system: full panel of 59 cancer cell lines; assay: NCI antitumor screen, full panel; details: one dose 10 µM
SR = assay: NCI antitumor screen (SRB); assay type: cell-based; details: Homo sapiens, one dose 10 µM, read-out: Growth inhibition percentage (GI%)
NCI-H522 = assay: NCI antitumor screen (SRB); assay type: cell-based; details: Homo sapiens
HT29 = assay: NCI antitumor screen (SRB); assay type: cell-based; details: Homo sapiens, HT-29, one dose 10 µM, read-out: Growth inhibition percentage (GI%)
OVCAR-8 = assay: NCI antitumor screen (SRB); assay type: cell-based; details: Homo sapiens, one dose 10 µM, read-out: Growth inhibition percentage (GI%)
CAKI-1 = assay: NCI antitumor screen (SRB); assay type: cell-based; details: Homo sapiens, one dose 10 µM, read-out: Growth inhibition percentage (GI%)
CCRF-CEM = assay: NCI antitumor screen (SRB); assay type: cell-based; details: Homo sapiens, one dose 10 µM, read-out: Growth inhibition percentage (GI%)
NCI-H226 = assay: NCI antitumor screen (SRB); assay type: cell-based; details: Homo sapiens, one dose 10 µM, read-out: Growth inhibition percentage (GI%)
HCT-116 = assay: NCI antitumor screen (SRB); assay type: cell-based; details: Homo sapiens, read-out: Growth inhibition percentage (GI%)
PC-3 = assay: NCI antitumor screen (SRB); assay type: cell-based; details: Homo sapiens, one dose 10 µM, read-out: Growth inhibition percentage (GI%)
U251 = assay: NCI antitumor screen (SRB); assay type: cell-based; details: Homo sapiens, U-251, one dose 10 µM, read-out: Growth inhibition percentage (GI%)
SK-MEL-2 = assay: NCI antitumor screen (SRB); assay type: cell-based; details: Homo sapiens
[2] = NCI-H522, read-out: Growth inhibition percentage (GI%)
[3] = SK-MEL-2, read-out: Growth inhibition percentage (GI%)

Row | SMILES | inhibition at 10 µM (HL-60(TB)) [%] | inhibition at 10 µM (K-562) [%] | inhibition at 10 µM (MOLT-4) [%] | inhibition at 10 µM (A549/ATCC) [%] | inhibition at 10 µM (HOP-62) [%] | inhibition at 10 µM (UACC-257; UACC-257) [%] | inhibition at 10 µM (UO-31; UO-31) [%] | inhibition at 10 µM (T-47D) [%] | PCE: positive cytotoxic effect (number of cell lines with GI 10 to 100% / total number of cell lines) [1] | inhibition at 10 µM (SR) [%] | inhibition at 10 µM (NCI-H522; [2]) [%] | inhibition at 10 µM (HT29) [%] | inhibition at 10 µM (PC-3) [%] | also measured
1 | CS(=O)(=O)c1ccc(C(=O)NN=Cc2ccccc2Cl)cc1 [Compound 13, N'-(2-Chlorobenzylidene)-4-(methylsulfonyl)benzohydrazide] | 47.7 | 32.5 | 32.3 | 21.6 | 12.7 | 35.5 | 15.7 | 12.5 | 10/59 |  |  |  |  | inhibition at 10 µM (SNB-75): 15.1%; inhibition at 10 µM (SK-OV-3): 11.7%
2 | CS(=O)(=O)c1ccc(C(=O)NN=Cc2ccccc2F)cc1 [Compound 14, N'-(2-Fluorobenzylidene)-4-(methylsulfonyl)benzohydrazide] | 36 | 25.7 | 26.4 | 29.3 | 15.8 | 42.4 |  | 11.8 | 12/59 | 49.2 | 26 | 18.6 |  | inhibition at 10 µM (OVCAR-8): 14.5%; inhibition at 10 µM (CAKI-1): 11.7%
3 | COc1ccccc1C=NNC(=O)c1ccc(S(C)(=O)=O)cc1 [Compound 15, N'-(2-Methoxybenzylidene)-4-(methylsulfonyl)benzohydrazide] | 36.5 | 23.4 | 11.6 | 11.9 | 18.9 | 10.1 | 14.4 | 18.2 | 14/59 | 15.6 |  |  | 19.1 | inhibition at 10 µM (CCRF-CEM): 16.1%; inhibition at 10 µM (NCI-H226): 10.3%; inhibition at 10 µM (HCT-116): 10.7%; inhibition at 10 µM (SK-OV-3): 17.1%
4 | COc1cc(/C=N/NC(=O)c2ccc(S(C)(=O)=O)cc2)ccc1O [Compound 19] | 67.3 | 27.2 | 30.9 | 29.3 | 12.1 | 48.4 | 12.8 |  | 13/59 | 18.5 | 37.7 | 17.5 |  | inhibition at 10 µM (U251): 13%; inhibition at 10 µM (SK-MEL-2; [3]): 13.9%; inhibition at 10 µM (OVCAR-8): 19.6%
5 | COc1ccc(C=NNC(=O)c2ccc(S(C)(=O)=O)cc2)cc1OC [Compound 21, N'-(3,4-Dimethoxybenzylidene)-4-(methylsulfonyl)benzohydrazide] | 45.9 | 19.1 | 34.1 |  |  |  |  |  | 8/59 |  | 15.7 |  | 11.5 | inhibition at 10 µM (HCT-116): 11%; inhibition at 10 µM (SNB-75): 14.2%; inhibition at 10 µM (CAKI-1): 11%
6 | CS(=O)(=O)c1ccc(C(=O)NN=Cc2ccc3c(c2)OCO3)cc1 [Compound 22, N'-(Benzo[d][1,3]dioxol-5-ylmethylene)-4-(methylsulfonyl)benzohydrazide] | 43 | 14.5 | 29.9 | 32.3 |  | 40.9 |  |  | 9/59 |  | 14 | 11 |  | inhibition at 10 µM (CCRF-CEM): 13%; inhibition at 10 µM (SK-MEL-2; [3]): 10.9%
7 | COc1cc(OC)c(OC)cc1/C=N/NC(=O)c1ccc(S(C)(=O)=O)cc1 [Compound 24] |  |  | 21.4 | 17.1 |  |  |  |  | 8/59 |  |  | 17.9 | 18.6 | inhibition at 10 µM (NCI-H522; NCI-H522, one dose 10 µM, read-out: Growth inhibition percentage (GI%)): 39.8%; inhibition at 10 µM (SK-MEL-2; SK-MEL-2, one dose 10 µM, read-out: Growth inhibition percentage (GI%)): 11.7%; inhibition at 10 µM (UACC-257; UACC-257, UACC-257): 21.6%; inhibition at 10 µM (UO-31; UO-31, UO-31): 10.5%
